We go through 4 compounds from paper PMC3671673, “In Vitro Morphological Assessment of Apoptosis Induced by Antiproliferative Constituents from the Rhizomes of Curcuma zedoaria” (Evidence-based Complementary and Alternative Medicine : eCAM, 2013).

The test system of series [1] is hormone-dependent breast cancer cell line (MCF-7). Also on record: method as in PMID 19471192. The note with it: MCF-7, reported previously, ref [21]; cited from earlier work.
The test system of series [2] is cervical carcinoma cell line (Ca Ski). More on the design: method as in PMID 19471192. The note with it: reported previously, ref [21]; cited from earlier work.
Series [3] concerns colon carcinoma cell line (HCT-116). Also on record: method as in PMID 19471192. Particulars: HCT-116, reported previously, ref [21]; cited from earlier work.
For series [4] the test system is unchanged. Briefly: Neutral red cytotoxicity assay, HCT-116. In kind it is cell-based. Particulars: Homo sapiens, 72 h, mean ± SD of three replicates, read-out: IC50 (μg/mL) HCT-116. As to the method:
(§1) The human cancer cells KB, Ca Ski, MCF-7, HCT-116, A549, and noncancer human cell lines (MRC-5) were purchased from the American Tissue Culture Collection (ATCC, USA). The supplemented RPMI 1640 media and eagle minimum essential medium (EMEM) were purchased from Sigma-Aldrich, USA. The supplements or antibiotics such as foetal bovine serum (FBS), penicillin/streptomycin (P/S) (100 μg/mL), amphotericin B (50 μg/mL), and accutase were purchased from PAA Laboratories, Austria. Sodium pyruvate (11 mg/mL) purchased from Sigma-Aldrich, USA. The cells were cultured in a SHEL LAB water-jacketed CO2 incubator with […] tissue culture flasks (Nunc, Denmark), which was observed routinely under inverted microscope (Leica DMI3000 B, Germany) for any contamination and seeded into 96-well flat bottom microtiter plate (Nunc, Denmark). The extract or pure compounds was dissolved in dimethyl sulfoxide (DMSO, Molecular Biology Grade, >99.9%) from Sigma-Aldrich, USA. Microtiter plate incubator shaker (LT Biomax 500) was used and absorbance was measured at 540 nm using an ELISA microplate reader (EMax microplate reader of Molecular Devices, USA). MCF-7 and Ca Ski were cultured in RPMI 1640 media supplemented with 10% v/v FBS, P/S, and amphotericin B and MRC-5 in EMEM media with 10% v/v FBS, P/S, amphotericin B, and sodium pyruvate. The cells were cultured in tissue culture flask in 5% CO2 incubator kept at 37°C in a humidified atmosphere and observed routinely under inverted microscope from any contaminations. Each fresh medium was replaced every 2 or 3 days until cell confluence was achieved and the cells were detached by using accutase.
(§2) The in vitro cytotoxicity activity was performed using the neutral red cytotoxicity assay based on the initial protocol as described earlier with some modifications. Briefly, cells were detached from the tissue culture flask with 1.0 mL solution of accutase and PBS solution. The cell pellet was obtained by centrifugation at 1,000 rpm for 5 minutes. The density of the viable cells was counted by 0.4% of trypan blue exclusion in a haemocytometer. Cells were then plated in 96-well microtiter plate (Nunc), at a concentration of 1 × 10^4 cells/well and incubated in a CO2 incubator at 37°C to allow the cells to adhere. After 24 h, the cells were treated with six different concentrations, that is, 1, 10, 25, 50, 75, and 100 μg/mL of each tested agent in three replicates. The plates were incubated for 72 h at 37°C in a 5% CO2 incubator. The untreated cells were regarded as a negative control, whilst cells incubated only with DMSO (0.5%, v/v) were used as a vehicle control. No effect due to the DMSO was observed. Doxorubicin was used as the positive control. After 72 h, the old medium was substituted with fresh medium containing 50 μg/mL neutral red. The 96-well plates were placed into incubator for 3 h. This is to allow the uptake of the vital dye into the lysosomes of viable and undamaged cells. Then, the media was discarded and cells were washed with 200 μL of neutral red washing solution. The dye was eluted from the cells by adding neutral red resorb solution (200 μL). The plate was further incubated for 30 min with rapid agitation on a microtiter plate shaker. The optical density (OD) of the eluted dye was read at 540 nm using a microplate reader. The experiments were conducted in triplicates. […] Cytotoxicity of each test agent is expressed as IC50 value. […]

Series [5] has as its system hormone-dependent breast cancer cell line (MCF-7). Briefly: cells. Particulars: Homo sapiens, MCF7, 72 h, neutral red, mean ± SD of three replicates, read-out: IC50 (μg/mL) MCF-7. It is filed as cell-based. As for the experimental part: as §1
(§3) The in vitro cytotoxicity activity was performed using the neutral red cytotoxicity assay based on the initial protocol as described earlier with some modifications. Briefly, cells were detached from the tissue culture flask with 1.0 mL solution of accutase and PBS solution. The cell pellet was obtained by centrifugation at 1,000 rpm for 5 minutes. The density of the viable cells was counted by 0.4% of trypan blue exclusion in a haemocytometer. Cells were then plated in 96-well microtiter plate (Nunc), at a concentration of 1 × 10^4 cells/well and incubated in a CO2 incubator at 37°C to allow the cells to adhere. After 24 h, the cells were treated with six different concentrations, that is, 1, 10, 25, 50, 75, and 100 μg/mL of each tested agent in three replicates. The plates were incubated for 72 h at 37°C in a 5% CO2 incubator. The untreated cells were regarded as a negative control, whilst cells incubated only with DMSO (0.5%, v/v) were used as a vehicle control. No effect due to the DMSO was observed. Doxorubicin was used as the positive control. After 72 h, the old medium was substituted with fresh medium containing 50 μg/mL neutral red. The 96-well plates were placed into incubator for 3 h. This is to allow the uptake of the vital dye into the lysosomes of viable and undamaged cells. Then, the media was discarded and cells were washed with 200 μL of neutral red washing solution. The dye was eluted from the cells by adding neutral red resorb solution (200 μL). The plate was further incubated for 30 min with rapid agitation on a microtiter plate shaker. The optical density (OD) of the eluted dye was read at 540 nm using a microplate reader. The experiments were conducted in triplicates. The percentage of inhibition of each of the test samples was calculated according to the following formula using the OD values obtained: percentage of inhibition (%) = (OD control − OD sample)/OD control × 100%. The average of three replicates was then obtained. Cytotoxicity of each test agent is expressed as IC50 value. The IC50 value is the concentration of test agents that cause 50% inhibition or cell death, averaged from the three experiments. The IC50 for each extract was extrapolated from the graphs of the percentage inhibition versus concentration of test agents.

Series [6] deals with cervical carcinoma cell line (Ca Ski). Briefly: cells. It is filed as cell-based. The note with it: Homo sapiens, 72 h, neutral red, mean ± SD of three replicates, read-out: IC50 (μg/mL) Ca Ski. As to the method: as §1, §3
Series [7] deals with nasopharyngeal carcinoma cell line (KB). Put plainly: Neutral red cytotoxicity assay, KB. In kind it is cell-based, human. The note with it: extracts, 72 h, mean ± SD of three replicates. As to the method: (§4) The human cancer cells KB, Ca Ski, MCF-7, HCT-116, A549, and noncancer human cell lines (MRC-5) were purchased from the American Tissue Culture Collection (ATCC, USA). The supplemented RPMI 1640 media and eagle minimum essential medium (EMEM) were purchased from Sigma-Aldrich, USA. The supplements or antibiotics such as foetal bovine serum (FBS), penicillin/streptomycin (P/S) (100 μg/mL), amphotericin B (50 μg/mL), and accutase were purchased from PAA Laboratories, Austria. Sodium pyruvate (11 mg/mL) purchased from Sigma-Aldrich, USA. […] Microtiter plate incubator shaker (LT Biomax 500) was used and absorbance was measured at 540 nm using an ELISA microplate reader (EMax microplate reader of Molecular Devices, USA). […]
(§5) The in vitro cytotoxicity activity was performed using the neutral red cytotoxicity assay based on the initial protocol as described earlier with some modifications. […] The density of the viable cells was counted by 0.4% of trypan blue exclusion in a haemocytometer. […] The optical density (OD) of the eluted dye was read at 540 nm using a microplate reader. […] Cytotoxicity of each test agent is expressed as IC50 value. […]

For series [8], the system named is noncancer human lung fibroblast cell line (MRC-5). Put plainly: Neutral red cytotoxicity assay, MRC-5. It is filed as cell-based. The note with it: 72 h, mean ± SD of three replicates, read-out: IC50 (μg/mL) MRC-5. As for the experimental part:
as §1, §2

Series [9] deals with lung carcinoma cell line (A549). Briefly: Neutral red cytotoxicity assay, A549. It is filed as cell-based. Particulars: Homo sapiens, extracts, 72 h, mean ± SD of three replicates, read-out: IC50 (μg/mL) A549. As for the experimental part:
as §4, §5

In brackets after ≈: the same amount, converted by molar mass. Where two headings read alike, the source gives them in different places.

Regarding `CC[C@H](CC[C@@H](C)[C@H]1CC[C@H]2[C@@H]3CC=C4C[C@@H](O)CC[C@]4(C)[C@H]3CC[C@]12C)C(C)C` [β-sitosterol (8), β-sitosterol], the “cytotoxicity (in words)” value in [1], in series [2] and in [3] was “low cytotoxicity” in each case.

Regarding `COc1cccc2c1C(=O)c1c(O)c3c(c(O)c1C2=O)C[C@@](O)(C(=O)CO)C[C@@H]3O[C@H]1C[C@H](N)[C@H](O)[C@H](C)O1` [Doxorubicin, reference compound], the IC50 in [4] (extracts) came to 0.24 ± 0.04 µg/mL (≈ 0.442 µM); in [5] (extracts), 0.05 ± 0.01 µg/mL (≈ 0.092 µM); in series [6] (extracts), 0.18 ± 0.06 µg/mL (≈ 0.331 µM); in [8] (MRC5, extracts), 0.4 ± 0.03 µg/mL (≈ 0.736 µM); in [9], 0.58 ± 0.01 µg/mL (≈ 1.07 µM). In addition, in [7], the “IC50 (μg/mL) KB” value came out at 0.27 ± 0.01 µg/mL (≈ 0.497 µM).

Regarding `C/C1=C\CC[C@@]2(C)O[C@@H]2C(=O)c2c(C)coc2C1` [Zederone (5), zederone], the IC50 in [4] (isolated compounds) was greater than 100 µg/mL; in series [5] (isolated compounds), greater than 100 µg/mL; in [6] (isolated compounds), greater than 100 µg/mL; in series [8] (MRC5, isolated compounds) it was greater than 100 µg/mL.

Take `C/C1=C\CC[C@H](C)C(=O)C[C@H](C(C)C)C(=O)C1` [Neocurdione (2), neocurdione]: the IC50 came to 64 ± 1.3 µg/mL (≈ 271 µM) in [4] (isolated compounds); 53.5 ± 1.1 µg/mL (≈ 226 µM) in series [5] (isolated compounds); 46.2 ± 1.1 µg/mL (≈ 195 µM) in series [6] (isolated compounds); 59 ± 0.4 µg/mL (≈ 250 µM) in series [8] (MRC5, isolated compounds).
